Experimental data from BindingDB's records for patent US20250197406 (1ST Biotherapeutics, 2025).

Target: Mitogen-activated protein kinase kinase kinase kinase 1 (Homo sapiens, UniProt Q92918)
Assay: HPK1 Kinase Assay
Protocol: HPK1 kinase activity was measured by Promega's ADP-Glo™ kinase assay. In this assay, 5 ng of recombinant human HPK1 (signalchem) is incubated with 5 μL of compounds (0.5% DMSO), 5 μL of MBP (0.5 μg/μl) and 5 μL of ATP (25 μM) in buffer (40 mM Tris, 7.5; 20 mM MgCl2; 0.1 mg/ml BSA; 50 μM DTT.). The assay was started by incubating the reaction mixture in a 96-well plate at 30° C. for 40 minutes. After the incubation, 25 μL ADP-Glo reagent was added and the reaction was incubated at room temperature for 40-min to stop the reaction and degrade residual ATP. The ADP product was then converted to ATP by adding 50 μL per well of detection reagent. Luminescence was detected after 30-min room temperature incubation with the Molecular device I3X plate reader. The IC50 values were calculated from a series of percent inhibition values determined at a range of inhibitor concentration using software routines as implemented in the GraphPad Prism 7 software and SigmaPlot13.0.

Sequence of Mitogen-activated protein kinase kinase kinase kinase 1 (Q92918 whole entry): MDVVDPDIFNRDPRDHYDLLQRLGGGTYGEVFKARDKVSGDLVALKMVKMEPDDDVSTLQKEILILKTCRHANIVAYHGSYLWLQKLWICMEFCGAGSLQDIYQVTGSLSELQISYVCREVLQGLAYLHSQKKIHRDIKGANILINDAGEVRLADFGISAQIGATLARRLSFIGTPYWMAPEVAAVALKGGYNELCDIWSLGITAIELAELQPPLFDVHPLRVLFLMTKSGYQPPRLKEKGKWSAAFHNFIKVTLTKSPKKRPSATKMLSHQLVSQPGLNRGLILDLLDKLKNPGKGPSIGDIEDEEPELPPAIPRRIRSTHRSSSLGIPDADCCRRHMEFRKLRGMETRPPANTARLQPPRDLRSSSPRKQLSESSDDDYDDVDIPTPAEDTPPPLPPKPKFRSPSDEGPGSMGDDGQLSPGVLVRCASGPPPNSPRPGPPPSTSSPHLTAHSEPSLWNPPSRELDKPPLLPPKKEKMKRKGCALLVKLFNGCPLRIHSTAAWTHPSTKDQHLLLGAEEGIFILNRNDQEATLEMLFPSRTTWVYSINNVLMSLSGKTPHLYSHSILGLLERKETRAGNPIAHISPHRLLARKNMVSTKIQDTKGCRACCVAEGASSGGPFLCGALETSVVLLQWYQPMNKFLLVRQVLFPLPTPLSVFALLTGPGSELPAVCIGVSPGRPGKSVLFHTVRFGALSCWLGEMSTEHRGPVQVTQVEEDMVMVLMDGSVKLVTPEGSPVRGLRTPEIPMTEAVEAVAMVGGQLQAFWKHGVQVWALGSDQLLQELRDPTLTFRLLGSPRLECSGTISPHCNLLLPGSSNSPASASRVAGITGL

IC50	Structure (SMILES)
< 100 nM	CC(=O)Nc1cn2cc(-c3c(Cl)c(F)c(NC(C)C)c4[nH]ncc34)ncc2n1 [US20250197406, Example 43]
< 100 nM	CC(C)Nc1c(F)c(Cl)c(-c2cn3cc(NC(=O)C4(F)CC4)nc3cn2)c2cn[nH]c12 [US20250197406, Example 52]
